Where “and” joins values, the source holds several entries; their conditions need not be identical. Identical values can stand only once. Where no end group is shown, it is not given here.
System: EV71
Test: Inhibitory activity on EV71 in RD cells by CCK8 method
Assay type: cell-based, enterovirus 71 (EV71)
Conditions: for IC50: EV71 in RD cells, CCK8 method; for Inhibition rate on EV71 virus (%): RD cells, 0.1 MOI, 24 h, CCK8
Protocol: (1) RD cells were plated in a 96-well plate at 100 μL per well.
(2) When the cells grew to a confluence of 70%-80%, the DMEM medium containing 10% serum was replaced with a DMEM medium containing 2% serum.
(§1) (3) The polypeptide drug was gradiently diluted with the DMEM containing 2% FBS into concentrations of 0.15625 μM, 0.3125 μM, 0.625 μM, 1.25 μM, 2.5 μM, and 5 μM, and then added to a new 96-well plate at 100 μL per well, with 3 replicate wells for each concentration.
(4) The diluted virus was added to the above wells at 100 μL per well. The wells with no drug and no virus added and the wells with no drug but virus added were set as controls respectively, with a final concentration of virus of 0.1 MOI.
(4) The mixture was transferred into the 96-well plate plated with cells for another 24 h of culture, and the inhibitory activity of the polypeptide on the virus was determined by a CCK8 kit.
(5) The inhibition rates of different concentrations of the polypeptides on virus infection were calculated according to a calculation formula of: inhibition rate of polypeptide=(well with drug-well with virus)×100%/(well with no drug-well with virus).
as §1, with “concentration. (4) The diluted virus was added to the above wells at 100 μL per well. The wells with no drug and no virus added and the wells with no drug but virus added were set as controls respectively, with a final concentration of virus of 0.1 MOI.” for “concentration.”

| Molecule | IC50 | Inhibition rate on EV71 virus (%) (polypeptide 0.15625 μM) | Inhibition rate on EV71 virus (%) (polypeptide 0.3125 μM) | Inhibition rate on EV71 virus (%) (polypeptide 0.625 μM) | Inhibition rate on EV71 virus (%) (polypeptide 1.25 μM) | Inhibition rate on EV71 virus (%) (polypeptide 2.5 μM) | Inhibition rate on EV71 virus (%) (polypeptide 5 μM) |
| --- | --- | --- | --- | --- | --- | --- | --- |
| CC[C@H](C)[C@H](NC(=O)[C@H](C)NC(=O)[C@H](CO)NC(=O)[C@H](CCCNC(=N)N)NC(=O)[C@H](CC(N)=O)NC(=O)[C@H](CC(N)=O)NC(=O)[C@H](Cc1ccc(O)cc1)NC(=O)[C@H](CCC(=O)O)NC(=O)CNC(=O)[C@H](CO)NC(=O)CNC(=O)[C@H](CCCNC(=N)N)NC(=O)[C@H](CCCNC(=N)N)NC(=O)[C@H](CCCNC(=N)N)NC(=O)[C@H](CCC(N)=O)NC(=O)[C@H](CCCNC(=N)N)NC(=O)[C@H](CCCNC(=N)N)NC(=O)[C@H](CCCCN)NC(=O)[C@H](CCCCN)NC(=O)[C@H](CCCNC(=N)N)NC(=O)CNC(=O)[C@@H](N)Cc1ccc(O)cc1)C(=O)NCC(=O)N[C@@H](CC(N)=O)C(=O)N[C@H](C(=O)N[C@H](C(=O)N[C@@H](CCC(=O)O)C(=O)N[C@@H](C)C(=O)N[C@@H](CC(C)C)C(=O)N[C@@H](Cc1ccccc1)C(=O)N[C@@H](CCC(N)=O)C(=O)O)[C@@H](C)CC)[C@@H](C)O [EQ] | 1830 nM | 6.885% and 4.675% and 10.9434% | 10.2126% and 12.8194% and 16.4536% | 21.5745% and 20.64% and 25.9399% | 31.5814% and 30.7778% and 32.9503% | 62.8263% and 54.1779% and 55.7124% | 86.8541% and 90.3885% and 78.0023% |
| CC[C@H](C)[C@H](NC(=O)[C@H](C)NC(=O)[C@H](CO)NC(=O)[C@H](CCCNC(=N)N)NC(=O)[C@H](CC(N)=O)NC(=O)[C@H](CC(N)=O)NC(=O)CNC(=O)[C@H](CO)NC(=O)CNC(=O)[C@H](CCCNC(=N)N)NC(=O)[C@H](CCCNC(=N)N)NC(=O)[C@H](CCCNC(=N)N)NC(=O)[C@H](CCC(N)=O)NC(=O)[C@H](CCCNC(=N)N)NC(=O)[C@H](CCCNC(=N)N)NC(=O)[C@H](CCCCN)NC(=O)[C@H](CCCCN)NC(=O)[C@H](CCCNC(=N)N)NC(=O)CNC(=O)[C@@H](N)Cc1ccc(O)cc1)C(=O)NCC(=O)N[C@@H](CC(N)=O)C(=O)N[C@H](C(=O)N[C@H](C(=O)N[C@@H](CCC(=O)O)C(=O)N[C@@H](C)C(=O)N[C@@H](CC(C)C)C(=O)N[C@@H](Cc1ccccc1)C(=O)N[C@@H](CCC(N)=O)C(=O)O)[C@@H](C)CC)[C@@H](C)O [NQ] | 1900 nM | 4.278% and 5.368% and 8.337% | 11.5056% and 17.809% and 19.7228% | 16.7886% and 21.2091% and 24.9365% | 41.6538% and 40.8779% and 50.5607% | 51.933% and 60.1502% and 57.7744% | 60.6122% and 74.6708% and 75.3331% |
| CC[C@H](C)[C@H](NC(=O)[C@H](C)NC(=O)[C@H](CO)NC(=O)[C@H](CCCNC(=N)N)NC(=O)CNC(=O)[C@H](CO)NC(=O)CNC(=O)[C@H](CCCNC(=N)N)NC(=O)[C@H](CCCNC(=N)N)NC(=O)[C@H](CCCNC(=N)N)NC(=O)[C@H](CCC(N)=O)NC(=O)[C@H](CCCNC(=N)N)NC(=O)[C@H](CCCNC(=N)N)NC(=O)[C@H](CCCCN)NC(=O)[C@H](CCCCN)NC(=O)[C@H](CCCNC(=N)N)NC(=O)CNC(=O)[C@@H](N)Cc1ccc(O)cc1)C(=O)NCC(=O)N[C@@H](CC(N)=O)C(=O)N[C@H](C(=O)N[C@H](C(=O)N[C@@H](CCC(=O)O)C(=O)N[C@@H](C)C(=O)N[C@@H](CC(C)C)C(=O)N[C@@H](Cc1ccccc1)C(=O)N[C@@H](CCC(N)=O)C(=O)O)[C@@H](C)CC)[C@@H](C)O [RSQ] | 2600 nM | 1.471% and 6.588% and 2.826% | 11.34% and 21.2746% and 16.4228% | 18.633% and 25.8298% and 26.1918% | 40.5468% and 36.4575% and 35.2676% | 53.4848% and 40.7778% and 47.2122% | 58.6022% and 68.9642% and 62.4952% |
| CC[C@H](C)[C@H](NC(=O)[C@H](C)NC(=O)[C@H](CO)NC(=O)CNC(=O)[C@H](CO)NC(=O)CNC(=O)[C@H](CCCNC(=N)N)NC(=O)[C@H](CCCNC(=N)N)NC(=O)[C@H](CCCNC(=N)N)NC(=O)[C@H](CCC(N)=O)NC(=O)[C@H](CCCNC(=N)N)NC(=O)[C@H](CCCNC(=N)N)NC(=O)[C@H](CCCCN)NC(=O)[C@H](CCCCN)NC(=O)[C@H](CCCNC(=N)N)NC(=O)CNC(=O)[C@@H](N)Cc1ccc(O)cc1)C(=O)NCC(=O)N[C@@H](CC(N)=O)C(=O)N[C@H](C(=O)N[C@H](C(=O)N[C@@H](CCC(=O)O)C(=O)N[C@@H](C)C(=O)N[C@@H](CC(C)C)C(=O)N[C@@H](Cc1ccccc1)C(=O)N[C@@H](CCC(N)=O)C(=O)O)[C@@H](C)CC)[C@@H](C)O [SAQ] | 2900 nM | 3.547% and 2.726% and 6.819% | 8.964% and 7.902% and 11.0435% | 14.4055% and 11.5364% and 18.402% | 27.4779% and 24.0778% and 33.4848% | 47.0158% and 47.2468% and 36.2572% | 75.1367% and 61.8367% and 63.2191% |
| CC[C@H](C)[C@H](NC(=O)[C@H](C)NC(=O)[C@H](CO)NC(=O)[C@H](CCCNC(=N)N)NC(=O)[C@H](CC(N)=O)NC(=O)[C@H](CC(N)=O)NC(=O)[C@H](Cc1ccc(O)cc1)NC(=O)CNC(=O)[C@H](CO)NC(=O)CNC(=O)[C@H](CCCNC(=N)N)NC(=O)[C@H](CCCNC(=N)N)NC(=O)[C@H](CCCNC(=N)N)NC(=O)[C@H](CCC(N)=O)NC(=O)[C@H](CCCNC(=N)N)NC(=O)[C@H](CCCNC(=N)N)NC(=O)[C@H](CCCCN)NC(=O)[C@H](CCCCN)NC(=O)[C@H](CCCNC(=N)N)NC(=O)CNC(=O)[C@@H](N)Cc1ccc(O)cc1)C(=O)NCC(=O)N[C@@H](CC(N)=O)C(=O)N[C@H](C(=O)N[C@H](C(=O)N[C@@H](CCC(=O)O)C(=O)N[C@@H](C)C(=O)N[C@@H](CC(C)C)C(=O)N[C@@H](Cc1ccccc1)C(=O)N[C@@H](CCC(N)=O)C(=O)O)[C@@H](C)CC)[C@@H](C)O [YQ] | 1960 nM | 5.8298% and 7.33% and 11.0089% | 15.102% and 10.7124% and 13.3881% | 23.6157% and 20.9642% and 29.1606% | 30.9365% and 28.1124% and 32.0401% | 62.0331% and 53.8159% and 52.1987% | 80.0886% and 71.2711% and 87.578% |
| YGRKKRRQRRRGSGAIGNTIEALFQ [AQ] | 2990 nM | 9.888% and 7.506% and 5.9715% | 15.9607% and 11.702% and 12.6022% | 26.3573% and 23.7158% and 19.5264% | 33.3847% and 31.7366% and 38.7678% | 58.9642% and 46.161% and 41.3092% | 51.0435% and 51.8675% and 69.1952% |
| YGRKKRRQRRRGSGGNTIEALFQ [GQ] | 1780 nM | 7.219% and 10.3851% and 5.4678% | 14.8883% and 12.0678% and 14.91% | 28.8333% and 30.5125% and 26.48% | 43.1263% and 40.6161% and 31.07% | 51.8367% and 58.9472% and 57.2507% | 71.5094% and 77.9438% and 84.7439% |
| YGRKKRRQRRRGSGIEALFQ [IEQ] | 2480 nM | 11.724% and 8.44% and 7.627% | 18.8643% and 15.5487% and 10.6223% | 20.7161% and 25.7224% and 19.5166% | 33.6936% and 35.484% and 28.4286% | 45.6995% and 48.4526% and 57.4377% | 69.4739% and 61.3527% and 68.272% |
| YGRKKRRQRRRGSGIGNTIEALFQ [IQ] | 1640 nM | 12.0331% and 13.5849% and 7.368% | 18.7401% and 22.4297% and 22.9573% | 26.0539% and 31.1744% and 34.8606% | 41.6022% and 42.578% and 47.4848% | 55.7952% and 50.9781% and 60.5503% | 73.2884% and 68.7332% and 83.2884% |
| YGRKKRRQRRRGSGNTIEALFQ [NTQ] | 2280 nM | 2.654% and 4.744% and 5.743% | 14.83% and 10.2542% and 13.3898% | 20.84% and 30.339% and 24.339% | 39.17% and 47.6271% and 50.8202% | 45.42% and 51.9492% and 59.661% | 68.27% and 52.5424% and 61.6949% |
| YGRKKRRQRRRGSGTIEALFQ [TQ] | 1760 nM | 3.314% and 5.356% and 7.23% | – | 33.3736% and 28.4011% and 30.3085% | 35.3209% and 40.3898% and 46.2471% | 59.3508% and 67.3559% and 55.2235% | 71.3029% and 65.3559% and 69.2301% |
